Patent US12590067B2, “Herbicidal cyclohexanedione derivatives” (SYNGENTA CROP PROTECTION AG, priority 2019, dated 2026)

What was measured:
Assay in all cases: Glasshouse herbicidal test, pre- and post-emergence, percentage damage to the plant
Assay type in all cases: in vivo
[1] = tested on: Avena fatua (AVEFA); conditions: 250 g/h, evaluated after 13 days; for AVEFA POST percentage damage caused to the plant (five-point scale): post-emergence; for AVEFA PRE percentage damage caused to the plant (five-point scale): pre-emergence
Description: (§1) Seeds of a variety of test species are sown in standard soil in pots (Lolium perenne (LOLPE), Setaria faberi (SETFA), Alopecurus myosuroides (ALOMY), Echinochloa crus-galli (ECHCG), Avena fatua (AVEFA)). After cultivation for one day (pre-emergence) or after 8 days cultivation (post-emergence) under controlled conditions in a glasshouse (at 24/16° C., day/night; 14 hours light; 65% humidity), the plants are sprayed with an aqueous spray solution derived from the formulation of the technical active ingredient in acetone/water (50:50) solution containing 0.5% Tween 20 (polyoxyethelyene sorbitan monolaurate, CAS RN 9005-64-5). Compounds are applied at 250 g/h. The test plants are then grown in a glasshouse under controlled conditions in a glasshouse (at 24/16° C., day/night; 14 hours light; 65% humidity) and watered twice daily. After 13 days for pre and post-emergence, the test is evaluated for the percentage damage caused to the plant. The biological activities are shown in the following table on a five-point scale (5=80-100%; 4=60-79%; 3=40-59%; 2=20-39%; 1=0-19%).

[2] = tested on: Lolium perenne (LOLPE); conditions: 250 g/h, evaluated after 13 days; for LOLPE POST percentage damage caused to the plant (five-point scale): post-emergence; for LOLPE PRE percentage damage caused to the plant (five-point scale): pre-emergence
Description: as §1

[3] = tested on: Alopecurus myosuroides (ALOMY); conditions: 250 g/h, evaluated after 13 days; for ALOMY POST percentage damage caused to the plant (five-point scale): post-emergence; for ALOMY PRE percentage damage caused to the plant (five-point scale): pre-emergence
Description: as §1

[4] = tested on: Echinochloa crus-galli (ECHCG); conditions: 250 g/h, evaluated after 13 days; for ECHCG POST percentage damage caused to the plant (five-point scale): post-emergence; for ECHCG PRE percentage damage caused to the plant (five-point scale): pre-emergence
Description: as §1

[5] = tested on: Setaria faberi (SETFA); conditions: 250 g/h, evaluated after 13 days; for SETFA POST percentage damage caused to the plant (five-point scale): post-emergence; for SETFA PRE percentage damage caused to the plant (five-point scale): pre-emergence
Description: as §1

Row | Structure (SMILES) | AVEFA POST percentage damage caused to the plant (five-point scale) [1] | AVEFA PRE percentage damage caused to the plant (five-point scale) [1] | LOLPE POST percentage damage caused to the plant (five-point scale) [2] | LOLPE PRE percentage damage caused to the plant (five-point scale) [2] | ALOMY POST percentage damage caused to the plant (five-point scale) [3] | ALOMY PRE percentage damage caused to the plant (five-point scale) [3] | ECHCG POST percentage damage caused to the plant (five-point scale) [4] | ECHCG PRE percentage damage caused to the plant (five-point scale) [4] | SETFA POST percentage damage caused to the plant (five-point scale) [5] | SETFA PRE percentage damage caused to the plant (five-point scale) [5]
1 | CC#Cc1cc(Cl)c(C2C(=O)CC3(CCN(C(=O)c4ccccn4)CC3)CC2=O)c(OC)c1 [Compound A4] | 5 (5=80-100%) | 5 (5=80-100%) | 5 (5=80-100%) | 5 (5=80-100%) | 5 (5=80-100%) | 5 (5=80-100%) | 5 (5=80-100%) | 5 (5=80-100%) | 5 (5=80-100%) | 5 (5=80-100%)
2 | CC#Cc1cc(Cl)c(C2C(=O)CC3(CCN(S(=O)(=O)CC)CC3)CC2=O)c(OC)c1 [Compound A2] | 5 (5=80-100%) | 5 (5=80-100%) | 5 (5=80-100%) | 5 (5=80-100%) | 5 (5=80-100%) | 5 (5=80-100%) | 5 (5=80-100%) | 5 (5=80-100%) | 5 (5=80-100%) | 5 (5=80-100%)
3 | CC#Cc1cc(CC)c(C2C(=O)CC3(CCN(C(C)=O)CC3)CC2=O)c(CC)c1 [Compound A48] | 5 (5=80-100%) | 5 (5=80-100%) | 5 (5=80-100%) | 5 (5=80-100%) | 5 (5=80-100%) | 5 (5=80-100%) | 5 (5=80-100%) | 4 (4=60-79%) | 5 (5=80-100%) | 5 (5=80-100%)
4 | CC#Cc1cc(Cl)c(C2C(=O)CC3(CCN(C(=O)C(F)F)CC3)CC2=O)c(OC)c1 [Compound A9] | 5 (5=80-100%) | 5 (5=80-100%) | 5 (5=80-100%) | 5 (5=80-100%) | 5 (5=80-100%) | 5 (5=80-100%) | 5 (5=80-100%) | 5 (5=80-100%) | 5 (5=80-100%) | 5 (5=80-100%)
5 | COc1cc(-c2ccc(C#N)cn2)cc(Cl)c1C1C(=O)CC2(CCN(C(C)=O)CC2)CC1=O [Compound A13] | 5 (5=80-100%) | 2 (2=20-39%) | 5 (5=80-100%) | 1 (1=0-19%) | 5 (5=80-100%) | 3 (3=40-59%) | 5 (5=80-100%) | 5 (5=80-100%) | 5 (5=80-100%) | 2 (2=20-39%)
6 | CC#Cc1cc(C)c(C2C(=O)CC3(CCN(C(C)=O)CC3)CC2=O)c(CC)c1 [Compound A47] | 5 (5=80-100%) | 5 (5=80-100%) | 5 (5=80-100%) | 5 (5=80-100%) | 5 (5=80-100%) | 5 (5=80-100%) | 5 (5=80-100%) | 5 (5=80-100%) | 5 (5=80-100%) | 5 (5=80-100%)
7 | CC#Cc1cc(Cl)c(C2C(=O)CC3(CCN(C(=O)c4ccccc4)CC3)CC2=O)c(OC)c1 [Compound A3, 3-benzoyl-9-(2-chloro-6-methoxy-4-prop-1-ynyl-phenyl)-3-azaspiro[5.5]undecane-8,10-dione] | 5 (5=80-100%) | 5 (5=80-100%) | 5 (5=80-100%) | 5 (5=80-100%) | 5 (5=80-100%) | 5 (5=80-100%) | 5 (5=80-100%) | 5 (5=80-100%) | 5 (5=80-100%) | 5 (5=80-100%)
8 | CC#Cc1cc(Cl)c(C2C(=O)CC3(CCN(C(C)=O)CC3)CC2=O)c(CC)c1 [Compound A49] | 5 (5=80-100%) | 5 (5=80-100%) | 5 (5=80-100%) | 5 (5=80-100%) | 5 (5=80-100%) | 5 (5=80-100%) | 5 (5=80-100%) | 5 (5=80-100%) | 5 (5=80-100%) | 5 (5=80-100%)
9 | CC#Cc1cc(Cl)c(C2C(=O)CC3(CCN(C(=O)COC(F)F)CC3)CC2=O)c(Cl)c1 [Compound A18] | 5 (5=80-100%) | 5 (5=80-100%) | 5 (5=80-100%) | 5 (5=80-100%) | 5 (5=80-100%) | 5 (5=80-100%) | 5 (5=80-100%) | 5 (5=80-100%) | 5 (5=80-100%) | 5 (5=80-100%)
10 | Cc1cc(-c2ccc(F)cn2)cc(Cl)c1C1C(=O)CC2(CCN(C(=O)C3CC3)CC2)CC1=O [Compound A58] | 5 (5=80-100%) | 5 (5=80-100%) | 5 (5=80-100%) | 5 (5=80-100%) | 5 (5=80-100%) | 5 (5=80-100%) | 5 (5=80-100%) | 5 (5=80-100%) | 5 (5=80-100%) | 5 (5=80-100%)
11 | CC#Cc1cc(Cl)c(C2C(=O)CC3(CCN(C(C)=O)CC3)CC2=O)c(OC)c1 [Compound A1] | 5 (5=80-100%) | 5 (5=80-100%) | 5 (5=80-100%) | 5 (5=80-100%) |  |  | 5 (5=80-100%) | 5 (5=80-100%) | 5 (5=80-100%) | 5 (5=80-100%)
12 | CCc1cc(-c2ccc(C#N)cn2)cc(CC)c1C1C(=O)CC2(CCN(C(=O)C3CC3)CC2)CC1=O [Compound A52] | 5 (5=80-100%) | 5 (5=80-100%) | 5 (5=80-100%) | 5 (5=80-100%) | 5 (5=80-100%) | 5 (5=80-100%) | 5 (5=80-100%) | 5 (5=80-100%) | 5 (5=80-100%) | 5 (5=80-100%)
